Assay results taken from US8618094B2, “Fused substituted aminopyrrolidine derivative” (Daiichi Sankyo Company, Limited, priority 2007, dated 2013).
≈ marks a conversion by molar mass, not a printed value. Like-named read-outs stand apart in the source and are kept apart here.

How the values were obtained:
Assay in all cases: Antibacterial activity (MIC), standard method of the Japanese Society of Chemotherapy
Assay type in all cases: cell-based
S. marcescens 10100 = conditions: Serratia marcescens
Method: (§1) Antibacterial activity of the compounds of the present invention was measured in accordance with the standard method specified by the Japanese Society of Chemotherapy.

[1] = tested on: M(B). Caterrhalis ATCC25238
Method: as §1

H. influenzae ATCC49247 = conditions: Haemophilus influenzae
Method: as §1

S. epidermidis 56500 = conditions: Staphylococcus epidermidis
Method: as §1

K. pneumoniae TYPE 1 = conditions: Klebsiella pneumoniae, TYPE1
Method: as §1

P. aeruginosa PAO1 = conditions: Pseudomonas aeruginosa
Method: as §1

S. pneumoniae J24 = conditions: Streptococcus pneumoniae
Method: as §1

[2] = tested on: S. pyogenes JCM5674(ATCC12344); conditions: Streptococcus pyogenes
Method: as §1

P. mirabilis 08103 = conditions: Proteus mirabilis
Method: as §1

S. aureus FDA 209-P = conditions: Staphylococcus aureus, FDA209
Method: as §1

E. faecalis 19433 = conditions: Enterococcus faecalis
Method: as §1

E. coli NIHJ = conditions: Escherichia coli
Method: as §1

S. aureus 870307 = conditions: Staphylococcus aureus
Method: as §1

E. cloacae 03400 = conditions: Enterobacter cloacae
Method: as §1

S. pneumoniae 104835 = conditions: Streptococcus pneumoniae
Method: as §1

[3] = M(B). Caterrhalis ATCC25238 (first half of Table 2), read-out: MIC, M(B). Caterrhalis ATCC25238
[4] = H. influenzae ATCC49247 (first half of Table 2), read-out: MIC, H. influenzae ATCC49247
[5] = M(B). Caterrhalis [sic] ATCC49247 (Table 2), read-out: MIC, M(B). Caterrhalis ATCC49247
[6] = ATCC 25238 / ATCC 49247, H. influenzae ATCC25238 as printed (second half of Table 2), read-out: MIC, H. influenzae ATCC25238

Structure (SMILES)	MIC (S. marcescens 10100) [µg/mL]	MIC [1, 3] [µg/mL]	MIC (H. influenzae ATCC49247; [4]) [µg/mL]	MIC (S. epidermidis 56500) [µg/mL]	MIC (K. pneumoniae TYPE 1) [µg/mL]	MIC (P. aeruginosa PAO1) [µg/mL]	MIC (S. pneumoniae J24) [µg/mL]	MIC [2] [µg/mL]	MIC (P. mirabilis 08103) [µg/mL]	MIC (S. aureus FDA 209-P) [µg/mL]	MIC (E. faecalis 19433) [µg/mL]	MIC (E. coli NIHJ) [µg/mL]	MIC (S. aureus 870307) [µg/mL]	MIC (E. cloacae 03400) [µg/mL]	MIC (S. pneumoniae 104835) [µg/mL]	MIC [1, 5] [µg/mL]	MIC (H. influenzae ATCC49247; [6]) [µg/mL]
COc1c(N2CC3=CCCC3(N)C2)c(F)cc2c(=O)c(C(=O)O)cn([C@@H]3C[C@@H]3F)c12 (single isomer, unassigned) [Example 25]	0.1 (≈ 0.24 µM)	0.025 (≈ 0.0599 µM)	0.006 (≈ 0.0144 µM)	0.1 (≈ 0.24 µM)	0.05 (≈ 0.12 µM)	0.39 (≈ 0.934 µM)	0.05 (≈ 0.12 µM)	0.05 (≈ 0.12 µM)	0.025 (≈ 0.0599 µM)	0.025 (≈ 0.0599 µM)	0.2 (≈ 0.479 µM)	0.012 (≈ 0.0287 µM)	0.39 (≈ 0.934 µM)	0.012 (≈ 0.0287 µM)	0.39 (≈ 0.934 µM)		
COc1c(N2CC3(N)CCC4CC43C2)c(F)cc2c(=O)c(C(=O)O)cn([C@@H]3C[C@@H]3F)c12 (single isomer, unassigned) [Example 27]	0.2 (≈ 0.464 µM)	0.05 (≈ 0.116 µM)	0.006 (≈ 0.0139 µM)	0.05 (≈ 0.116 µM)	0.1 (≈ 0.232 µM)	0.78 (≈ 1.81 µM)	0.025 (≈ 0.0579 µM)	0.05 (≈ 0.116 µM)	0.05 (≈ 0.116 µM)	0.012 (≈ 0.0278 µM)	0.1 (≈ 0.232 µM)	0.012 (≈ 0.0278 µM)	0.2 (≈ 0.464 µM)	0.025 (≈ 0.0579 µM)	0.2 (≈ 0.464 µM)		
O=C(O)c1cn(C2CC2)c2cc(N3CCNCC3)c(F)cc2c1=O [CPFX, ciprofloxacin, reference compound]				0.2 (≈ 0.604 µM)		0.05 (≈ 0.151 µM)	0.78 (≈ 2.35 µM)	0.39 (≈ 1.18 µM)	0.012 (≈ 0.0362 µM)	0.1 (≈ 0.302 µM)	0.78 (≈ 2.35 µM)	≤ 0.003	> 6.25		> 6.25		
COc1c(N2C[C@H]3[C@@H](C)C[C@@]3(N)C2)c(F)cc2c(=O)c(C(=O)O)cn([C@@H]3C[C@@H]3F)c12 [Example 2, 7-{(1S,5R,6S)-1-Amino-6-methyl-3-azabicyclo[3.2.0]hept-3-yl}-6-fluoro-1-[(1R,2S)-2-fluorocyclopropyl]-1,4-dihydro-8-methoxy-4-oxoquinoline-3-carboxylic acid]	0.2 (≈ 0.477 µM)	0.025 (≈ 0.0596 µM)	0.006 (≈ 0.0143 µM)	0.012 (≈ 0.0286 µM)	0.1 (≈ 0.238 µM)	0.78 (≈ 1.86 µM)	0.012 (≈ 0.0286 µM)	0.025 (≈ 0.0596 µM)	0.012 (≈ 0.0286 µM)	≤ 0.003	0.05 (≈ 0.119 µM)	0.025 (≈ 0.0596 µM)	0.1 (≈ 0.238 µM)	0.025 (≈ 0.0596 µM)	0.1 (≈ 0.238 µM)		
COc1c(N2C[C@H]3[C@H](C)C[C@@]3(N)C2)c(F)cc2c(=O)c(C(=O)O)cn([C@@H]3C[C@@H]3F)c12 [Example 5, 7-{(1S,5R,6R)-1-Amino-6-methyl-3-azabicyclo[3.2.0]hept-3-yl}-6-fluoro-1-[(1R,2S)-2-fluorocyclopropyl]-1,4-dihydro-8-methoxy-4-oxoquinoline-3-carboxylic acid]	0.2 (≈ 0.477 µM)	0.05 (≈ 0.119 µM)	0.012 (≈ 0.0286 µM)	0.025 (≈ 0.0596 µM)	0.1 (≈ 0.238 µM)	0.78 (≈ 1.86 µM)	0.025 (≈ 0.0596 µM)	0.05 (≈ 0.119 µM)	0.025 (≈ 0.0596 µM)	0.006 (≈ 0.0143 µM)	0.1 (≈ 0.238 µM)	0.025 (≈ 0.0596 µM)	0.2 (≈ 0.477 µM)	0.025 (≈ 0.0596 µM)	0.2 (≈ 0.477 µM)		
Cc1c(N2C[C@]3(N)CCC[C@]3(F)C2)c(F)cc2c(=O)c(C(=O)O)cn([C@@H]3C[C@@H]3F)c12 [Example 17, 7-[(1R,5S)-1-Amino-5-fluoro-3-azabicyclo[3.3.0]octan-3-yl]-6-fluoro-1-[(1R,2S)-2-fluorocyclopropane]-1,4-dihydro-8-methyl-4-oxoquinoline-3-carboxylic acid]	0.05 (≈ 0.119 µM)	0.006 (≈ 0.0142 µM)	≤ 0.003	0.025 (≈ 0.0593 µM)	0.012 (≈ 0.0285 µM)	0.2 (≈ 0.475 µM)	0.025 (≈ 0.0593 µM)	0.025 (≈ 0.0593 µM)	0.006 (≈ 0.0142 µM)	0.006 (≈ 0.0142 µM)	0.05 (≈ 0.119 µM)	≤ 0.003	0.2 (≈ 0.475 µM)	0.006 (≈ 0.0142 µM)	0.1 (≈ 0.237 µM)		
COc1c(N2C[C@@H]3CCCC[C@@]3(N)C2)c(F)cc2c(=O)c(C(=O)O)cn([C@@H]3C[C@@H]3F)c12 [Example 31, 7-[(1S,6S)-1-Amino-8-azabicyclo[4.3.0]nonan-8-yl]-6-fluoro-1-[(1R,2S)-2-fluorocyclopropyl]-8-methoxy-1,4-dihydro-4-oxoquinoline-3-carboxylic acid]	0.1 (≈ 0.231 µM)			0.05 (≈ 0.115 µM)	0.05 (≈ 0.115 µM)	0.39 (≈ 0.9 µM)	0.025 (≈ 0.0577 µM)	0.025 (≈ 0.0577 µM)	0.012 (≈ 0.0277 µM)	0.012 (≈ 0.0277 µM)	0.1 (≈ 0.231 µM)	0.006 (≈ 0.0138 µM)	0.1 (≈ 0.231 µM)	0.012 (≈ 0.0277 µM)	0.2 (≈ 0.461 µM)	0.025 (≈ 0.0577 µM)	0.012 (≈ 0.0277 µM)
C[C@H]1COc2c(N3C[C@@H]4CCCC[C@@]4(N)C3)c(F)cc3c(=O)c(C(=O)O)cn1c23 [Example 34, 10-[(1S,6S)-1-Amino-8-azabicyclo[4.3.0]nonan-8-yl]-9-fluoro-2,3-dihydro-3-(S)-methyl-7-oxo-7H-pyrido[1,2,3-de][1,4]benzoxazine-6-carboxylic acid]	0.05 (≈ 0.125 µM)			0.05 (≈ 0.125 µM)	0.025 (≈ 0.0623 µM)	0.2 (≈ 0.498 µM)	0.1 (≈ 0.249 µM)	0.05 (≈ 0.125 µM)	0.012 (≈ 0.0299 µM)	0.025 (≈ 0.0623 µM)	0.1 (≈ 0.249 µM)	0.006 (≈ 0.0149 µM)	0.39 (≈ 0.972 µM)	0.006 (≈ 0.0149 µM)	0.39 (≈ 0.972 µM)	0.012 (≈ 0.0299 µM)	0.006 (≈ 0.0149 µM)
COc1c(N2C[C@@H]3CC=CC[C@@]3(N)C2)c(F)cc2c(=O)c(C(=O)O)cn([C@@H]3C[C@@H]3F)c12 [Example 35, 7-[(1S,6S)-1-Amino-8-azabicyclo[4.3.0]non-3-en-8-yl]-6-fluoro-1-[(1R,2S)-2-fluorocyclopropyl]-1,4-dihydro-8-methoxy-4-oxoquinoline-3-carboxylic acid]	0.1 (≈ 0.232 µM)			0.05 (≈ 0.116 µM)	0.05 (≈ 0.116 µM)	0.39 (≈ 0.904 µM)	0.05 (≈ 0.116 µM)	0.05 (≈ 0.116 µM)	0.025 (≈ 0.0579 µM)	0.025 (≈ 0.0579 µM)	0.2 (≈ 0.464 µM)	0.006 (≈ 0.0139 µM)	0.2 (≈ 0.464 µM)	0.012 (≈ 0.0278 µM)	0.39 (≈ 0.904 µM)	0.025 (≈ 0.0579 µM)	0.012 (≈ 0.0278 µM)
COc1c(N2C[C@@H]3COCC[C@@]3(N)C2)c(F)cc2c(=O)c(C(=O)O)cn([C@@H]3C[C@@H]3F)c12 [Example 37, 7-[(1S,6S)-1-Amino-4-oxa-8-azabicyclo[4.3.0]nonan-8-yl]-6-fluoro-1-[(1R,2S)-2-fluorocyclopropyl]-1,4-dihydro-8-methoxy-4-oxoquinoline-3-carboxylic acid]	0.2 (≈ 0.459 µM)			0.012 (≈ 0.0276 µM)	0.1 (≈ 0.23 µM)	1.56 (≈ 3.58 µM)	0.05 (≈ 0.115 µM)	0.05 (≈ 0.115 µM)	0.05 (≈ 0.115 µM)	0.006 (≈ 0.0138 µM)	0.1 (≈ 0.23 µM)	0.006 (≈ 0.0138 µM)	0.05 (≈ 0.115 µM)	0.025 (≈ 0.0574 µM)	0.39 (≈ 0.896 µM)	0.025 (≈ 0.0574 µM)	≤ 0.003
COc1c(N2C[C@@H]3CCOC[C@@]3(N)C2)c(F)cc2c(=O)c(C(=O)O)cn([C@@H]3C[C@@H]3F)c12 [Example 43, 7-[(1S,6S)-1-Amino-8-aza-3-oxabicyclo[4,3,0]nonan-8-yl]-6-fluoro-1-[(1R,2S)-2-fluorocyclopropyl]-1,4-dihydro-8-methoxy-4-oxoquinoline-3-carboxylic acid]	0.2 (≈ 0.459 µM)			0.05 (≈ 0.115 µM)	0.05 (≈ 0.115 µM)	0.78 (≈ 1.79 µM)	0.1 (≈ 0.23 µM)	0.05 (≈ 0.115 µM)	0.025 (≈ 0.0574 µM)	0.012 (≈ 0.0276 µM)	0.2 (≈ 0.459 µM)	0.006 (≈ 0.0138 µM)	0.2 (≈ 0.459 µM)	0.012 (≈ 0.0276 µM)	0.78 (≈ 1.79 µM)	0.025 (≈ 0.0574 µM)	0.006 (≈ 0.0138 µM)
C[C@H]1COc2c(N3CCN(C)CC3)c(F)cc3c(=O)c(C(=O)O)cn1c23 [LVFX, levofloxacin, reference compound]	0.05 (≈ 0.138 µM)			0.39 (≈ 1.08 µM)	0.05 (≈ 0.138 µM)	0.39 (≈ 1.08 µM)	0.78 (≈ 2.16 µM)	0.39 (≈ 1.08 µM)	0.025 (≈ 0.0692 µM)	0.1 (≈ 0.277 µM)	0.78 (≈ 2.16 µM)	0.012 (≈ 0.0332 µM)	6.25 (≈ 17.3 µM)	0.012 (≈ 0.0332 µM)	> 6.25	0.025 (≈ 0.0692 µM)	0.012 (≈ 0.0332 µM)
COc1c(N2C[C@@H]3CCCN[C@@H]3C2)c(F)cc2c(=O)c(C(=O)O)cn(C3CC3)c12 [MXFX, moxifloxacin, reference compound]	0.2 (≈ 0.498 µM)			0.1 (≈ 0.249 µM)	0.1 (≈ 0.249 µM)	0.78 (≈ 1.94 µM)	0.1 (≈ 0.249 µM)	0.2 (≈ 0.498 µM)	0.025 (≈ 0.0623 µM)	0.05 (≈ 0.125 µM)	0.2 (≈ 0.498 µM)		0.78 (≈ 1.94 µM)		3.13 (≈ 7.8 µM)		
